Assay results: PubChem BioAssay (NCI)
Where “and” joins values, the source holds several entries; their conditions need not be identical. Identical values can stand only once.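 Briefly, cells in 96-well plates were exposed to five compound concentrations for 48 h, and endpoints were estimated by linear interpolation. GI50 marks 50% less growth. TGI denotes the concentration required for complete inhibition of growth.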

Assays:
Assay in all cases: NCI-60 cell line screen, 48 h; in the data active means GI50 below about 0.43 µM; inactive means the rest
786-0 renal = system: 786-0 renal
A498 renal = system: A498 renal
A549 NSCLC = system: A549 NSCLC
ACHN renal = system: ACHN renal
BT-549 breast = system: BT-549 breast
CAKI-1 renal = system: CAKI-1 renal
CCRF-CEM leukemia = system: CCRF-CEM leukemia
COLO 205 colon = system: COLO 205 colon
DU-145 prostate = system: DU-145 prostate
EKVX NSCLC = system: EKVX NSCLC
HCC-2998 colon = system: HCC-2998 colon
HCT-116 colon = system: HCT-116 colon
HCT-15 colon = system: HCT-15 colon
HL-60(TB) leukemia = system: HL-60(TB) leukemia
HOP-62 NSCLC = system: HOP-62 NSCLC
HOP-92 NSCLC = system: HOP-92 NSCLC
HS 578T breast = system: HS 578T breast
HT29 colon = system: HT29 colon
IGROV1 ovarian = system: IGROV1 ovarian
K-562 leukemia = system: K-562 leukemia
KM12 colon = system: KM12 colon
M14 melanoma = system: M14 melanoma
MCF7 breast = system: MCF7 breast
MDA-MB-231 breast = system: MDA-MB-231 breast
MDA-MB-435 = system: MDA-MB-435
MOLT-4 leukemia = system: MOLT-4 leukemia
NCI-H226 lung = system: NCI-H226 lung
NCI-H23 lung = system: NCI-H23 lung
NCI-H460 lung = system: NCI-H460 lung
NCI-H522 lung = system: NCI-H522 lung
NCI/ADR-RES ovarian = system: NCI/ADR-RES ovarian
OVCAR-3 ovarian = system: OVCAR-3 ovarian
OVCAR-4 ovarian = system: OVCAR-4 ovarian
OVCAR-5 ovarian = system: OVCAR-5 ovarian
OVCAR-8 ovarian = system: OVCAR-8 ovarian
PC-3 prostate = system: PC-3 prostate
RPMI-8226 leukemia = system: RPMI-8226 leukemia
RXF 393 renal = system: RXF 393 renal
SF-268 CNS = system: SF-268 CNS
SF-295 CNS = system: SF-295 CNS
SF-539 CNS = system: SF-539 CNS
SK-MEL-2 melanoma = system: SK-MEL-2 melanoma
SK-MEL-28 melanoma = system: SK-MEL-28 melanoma
SK-MEL-5 melanoma = system: SK-MEL-5 melanoma
SK-OV-3 ovarian = system: SK-OV-3 ovarian
SN12C renal = system: SN12C renal
SNB-19 CNS = system: SNB-19 CNS
SNB-75 CNS = system: SNB-75 CNS
SW-620 colon = system: SW-620 colon
T-47D breast = system: T-47D breast
TK-10 renal = system: TK-10 renal
U251 CNS = system: U251 CNS
UACC-257 melanoma = system: UACC-257 melanoma
UACC-62 melanoma = system: UACC-62 melanoma
UO-31 renal = system: UO-31 renal
LOX IMVI melanoma = system: LOX IMVI melanoma

N#Cc1c(-c2ccccc2)[nH]c(=O)n(C2OC(CO)C(O)C(O)C2O)c1=O (stereo not given)
inactive: GI50 (HL-60(TB) leukemia) 47.4 µM and > 100 µM | GI50 (IGROV1 ovarian) > 100 µM and 21.3 µM | GI50 (NCI-H226 lung) > 100 µM and 45.4 µM | GI50 (NCI-H522 lung) 27.6 µM and > 100 µM
> 100 µM: TGI (786-0 renal) | TGI (A498 renal) | TGI (A549 NSCLC) | TGI (ACHN renal) | TGI (BT-549 breast) | TGI (CAKI-1 renal) | TGI (CCRF-CEM leukemia) | TGI (COLO 205 colon) | TGI (DU-145 prostate) | TGI (EKVX NSCLC) | TGI (HCC-2998 colon) | TGI (HCT-116 colon) | TGI (HCT-15 colon) | TGI (HL-60(TB) leukemia) | TGI (HOP-62 NSCLC) | TGI (HOP-92 NSCLC) | TGI (HS 578T breast) | TGI (HT29 colon) | TGI (IGROV1 ovarian) | TGI (K-562 leukemia) | TGI (KM12 colon) | TGI (M14 melanoma) | TGI (MCF7 breast) | TGI (MDA-MB-231 breast) | TGI (MDA-MB-435) | TGI (MOLT-4 leukemia) | TGI (NCI-H226 lung) | TGI (NCI-H23 lung) | TGI (NCI-H460 lung) | TGI (NCI/ADR-RES ovarian) | TGI (OVCAR-3 ovarian) | TGI (OVCAR-4 ovarian) | TGI (OVCAR-5 ovarian) | TGI (OVCAR-8 ovarian) | TGI (PC-3 prostate) | TGI (RPMI-8226 leukemia) | TGI (RXF 393 renal) | TGI (SF-268 CNS) | TGI (SF-295 CNS) | TGI (SF-539 CNS) | TGI (SK-MEL-2 melanoma) | TGI (SK-MEL-28 melanoma) | TGI (SK-MEL-5 melanoma) | TGI (SK-OV-3 ovarian) | TGI (SN12C renal) | TGI (SNB-19 CNS) | TGI (SNB-75 CNS) | TGI (SW-620 colon) | TGI (T-47D breast) | TGI (TK-10 renal) | TGI (U251 CNS) | TGI (UACC-257 melanoma) | TGI (UACC-62 melanoma) | TGI (UO-31 renal)
63.5 µM and > 100 µM: TGI (NCI-H522 lung)

CN(C)C(=O)OC(Cn1cncn1)(Cn1cncn1)c1ccc(Cl)cc1Cl
> 100 µM: TGI (786-0 renal) | TGI (A498 renal) | TGI (A549 NSCLC) | TGI (BT-549 breast) | TGI (CAKI-1 renal) | TGI (CCRF-CEM leukemia) | TGI (COLO 205 colon) | TGI (DU-145 prostate) | TGI (EKVX NSCLC) | TGI (HCC-2998 colon) | TGI (HCT-15 colon) | TGI (HL-60(TB) leukemia) | TGI (HOP-62 NSCLC) | TGI (HOP-92 NSCLC) | TGI (HS 578T breast) | TGI (HT29 colon) | TGI (IGROV1 ovarian) | TGI (K-562 leukemia) | TGI (KM12 colon) | TGI (LOX IMVI melanoma) | TGI (M14 melanoma) | TGI (MCF7 breast) | TGI (MDA-MB-231 breast) | TGI (MDA-MB-435) | TGI (MOLT-4 leukemia) | TGI (NCI-H226 lung) | TGI (NCI-H460 lung) | TGI (NCI-H522 lung) | TGI (NCI/ADR-RES ovarian) | TGI (OVCAR-3 ovarian) | TGI (OVCAR-4 ovarian) | TGI (OVCAR-5 ovarian) | TGI (OVCAR-8 ovarian) | TGI (PC-3 prostate) | TGI (RPMI-8226 leukemia) | TGI (RXF 393 renal) | TGI (SF-268 CNS) | TGI (SF-295 CNS) | TGI (SF-539 CNS) | TGI (SK-MEL-2 melanoma) | TGI (SK-MEL-28 melanoma) | TGI (SK-MEL-5 melanoma) | TGI (SK-OV-3 ovarian) | TGI (SNB-19 CNS) | TGI (SNB-75 CNS) | TGI (SW-620 colon) | TGI (T-47D breast) | TGI (TK-10 renal) | TGI (U251 CNS) | TGI (UACC-257 melanoma) | TGI (UO-31 renal)
